From ChEMBL document CHEMBL5512682, “Discovery of BMS-986308: A Renal Outer Medullary Potassium Channel Inhibitor for the Treatment of Heart Failure” (J Med Chem, 2024)
Values after ≈ are worked out from the molar mass of the structure shown.

How the values were obtained:
[1] = molecular target: Solute carrier family 22 member 6 (Homo sapiens, UniProt Q4U2R8); test: Inhibition of OAT1 (unknown origin)
[2] = molecular target: Organic anion transporter 3 (Homo sapiens, UniProt Q8TCC7); test: Inhibition of OAT3 (unknown origin)
Sequence of Organic anion transporter 3 (Q8TCC7 whole entry): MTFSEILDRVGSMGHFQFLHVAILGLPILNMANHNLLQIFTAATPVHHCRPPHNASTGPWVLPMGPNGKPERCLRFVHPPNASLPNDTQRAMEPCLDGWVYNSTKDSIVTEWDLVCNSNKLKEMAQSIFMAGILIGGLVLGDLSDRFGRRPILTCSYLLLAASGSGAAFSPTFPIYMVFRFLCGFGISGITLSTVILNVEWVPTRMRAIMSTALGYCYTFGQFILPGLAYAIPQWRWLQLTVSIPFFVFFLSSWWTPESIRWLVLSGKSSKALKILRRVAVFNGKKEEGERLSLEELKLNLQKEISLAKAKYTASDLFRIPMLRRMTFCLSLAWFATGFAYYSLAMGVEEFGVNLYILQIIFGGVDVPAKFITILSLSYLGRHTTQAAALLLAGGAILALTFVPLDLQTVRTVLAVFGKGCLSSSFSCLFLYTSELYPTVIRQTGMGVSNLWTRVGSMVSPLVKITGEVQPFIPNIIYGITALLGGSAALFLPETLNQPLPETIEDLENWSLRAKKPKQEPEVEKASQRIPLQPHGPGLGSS

[3] = molecular target: Broad substrate specificity ATP-binding cassette transporter ABCG2 (Homo sapiens, UniProt Q9UNQ0); test: Inhibition of BCRP (unknown origin)
Sequence of Broad substrate specificity ATP-binding cassette transporter ABCG2 (Q9UNQ0 whole entry): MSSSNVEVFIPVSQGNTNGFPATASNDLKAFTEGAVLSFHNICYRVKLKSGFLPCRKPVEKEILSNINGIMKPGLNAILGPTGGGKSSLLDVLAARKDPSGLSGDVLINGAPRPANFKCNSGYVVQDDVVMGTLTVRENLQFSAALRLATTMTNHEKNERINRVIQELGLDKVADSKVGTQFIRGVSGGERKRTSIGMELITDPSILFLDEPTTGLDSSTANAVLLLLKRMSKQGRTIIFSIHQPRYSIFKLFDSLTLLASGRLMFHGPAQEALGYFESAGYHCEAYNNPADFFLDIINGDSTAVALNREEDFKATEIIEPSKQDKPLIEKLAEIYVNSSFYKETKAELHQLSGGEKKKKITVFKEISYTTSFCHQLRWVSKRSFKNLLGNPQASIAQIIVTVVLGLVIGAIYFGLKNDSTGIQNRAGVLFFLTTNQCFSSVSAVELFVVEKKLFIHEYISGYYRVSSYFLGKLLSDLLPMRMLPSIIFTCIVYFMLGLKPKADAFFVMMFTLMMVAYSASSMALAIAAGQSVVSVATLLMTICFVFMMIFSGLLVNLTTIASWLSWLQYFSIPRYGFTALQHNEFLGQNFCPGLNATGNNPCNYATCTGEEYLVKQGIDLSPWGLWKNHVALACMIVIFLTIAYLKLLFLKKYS

[4] = Solubility of compound at pH 1.1; assay type: physicochemical; conditions: buffer
[5] = Solubility of compound at pH 7.4; assay type: physicochemical; conditions: buffer
[6] = Volume of distribution at steady state in mouse at 2 mg/kg, iv; assay type: ADME, organism-based; conditions: in vivo, read-out: Vdss
[7] = Half-life in mouse at 2 mg/kg, iv; assay type: ADME, organism-based; conditions: in vivo
[8] = MRT in mouse at 2 mg/kg, iv; assay type: ADME, organism-based; conditions: in vivo
[9] = Cmax in mouse at 2 mg/kg, po; assay type: ADME, organism-based; conditions: in vivo
[10] = Tmax in mouse at 2 mg/kg, po; assay type: ADME, organism-based; conditions: in vivo
[11] = AUC (0 to t) in mouse at 2 mg/kg, po; assay type: ADME, organism-based; conditions: in vivo
[12] = Oral bioavailability in mouse at 5 mg/kg; assay type: ADME, organism-based; conditions: in vivo
[13] = Volume of distribution at steady state in male Sprague-Dawley rat at 2 mg/kg, iv measured after 24 hrs by LC-MS/MS analysis; assay type: ADME, organism-based; conditions: in vivo, read-out: Vdss
[14] = Half-life in male Sprague-Dawley rat at 2 mg/kg, iv measured after 24 hrs by LC-MS/MS analysis; assay type: ADME, organism-based; conditions: in vivo
[15] = MRT in male Sprague-Dawley rat at 2 mg/kg, iv measured after 24 hrs by LC-MS/MS analysis; assay type: ADME, organism-based; conditions: in vivo
[16] = Cmax in male Sprague-Dawley rat at 5 mg/kg, po measured after 24 hrs by LC-MS/MS analysis; assay type: ADME, organism-based; conditions: in vivo
[17] = Tmax in male Sprague-Dawley rat at 5 mg/kg, po measured after 24 hrs by LC-MS/MS analysis; assay type: ADME, organism-based; conditions: in vivo
[18] = AUC (0 to t) in male Sprague-Dawley rat at 5 mg/kg, po measured after 24 hrs by LC-MS/MS analysis; assay type: ADME, organism-based; conditions: in vivo
[19] = Oral bioavailability in male Sprague-Dawley rat at 5 mg/kg measured after 24 hrs by LC-MS/MS analysis; assay type: ADME, organism-based; conditions: in vivo
[20] = Volume of distribution at steady state in dog at 2 mg/kg, iv; assay type: ADME, organism-based, Canis lupus familiaris; conditions: in vivo, read-out: Vdss
[21] = Half-life in dog at 2 mg/kg, iv; assay type: ADME, organism-based, Canis lupus familiaris; conditions: in vivo
[22] = MRT in dog at 2 mg/kg, iv; assay type: ADME, organism-based, Canis lupus familiaris; conditions: in vivo
[23] = Cmax in dog at 5 mg/kg, po; assay type: ADME, organism-based, Canis lupus familiaris; conditions: in vivo
[24] = Tmax in dog at 5 mg/kg, po; assay type: ADME, organism-based, Canis lupus familiaris; conditions: in vivo
[25] = AUC (0 to t) in dog at 5 mg/kg, po; assay type: ADME, organism-based, Canis lupus familiaris; conditions: in vivo
[26] = Oral bioavailability in dog at 5 mg/kg; assay type: ADME, organism-based, Canis lupus familiaris; conditions: in vivo
[27] = Volume of distribution at steady state in Cynomolgus monkey at 2 mg/kg, iv; assay type: ADME, organism-based, Macaca fascicularis; conditions: in vivo, read-out: Vdss
[28] = Half-life in Cynomolgus monkey at 2 mg/kg, iv; assay type: ADME, organism-based, Macaca fascicularis; conditions: in vivo
[29] = MRT in Cynomolgus monkey at 2 mg/kg, iv; assay type: ADME, organism-based, Macaca fascicularis; conditions: in vivo
[30] = Cmax in Cynomolgus monkey at 5 mg/kg, po; assay type: ADME, organism-based, Macaca fascicularis; conditions: in vivo
[31] = Tmax in Cynomolgus monkey at 5 mg/kg, po; assay type: ADME, organism-based, Macaca fascicularis; conditions: in vivo
[32] = AUC (0 to t) in Cynomolgus monkey at 5 mg/kg, po; assay type: ADME, organism-based, Macaca fascicularis; conditions: in vivo
[33] = Oral bioavailability in Cynomolgus monkey at 5 mg/kg; assay type: ADME, organism-based, Macaca fascicularis; conditions: in vivo

Sequence of Solute carrier family 22 member 6 (Q4U2R8 whole entry): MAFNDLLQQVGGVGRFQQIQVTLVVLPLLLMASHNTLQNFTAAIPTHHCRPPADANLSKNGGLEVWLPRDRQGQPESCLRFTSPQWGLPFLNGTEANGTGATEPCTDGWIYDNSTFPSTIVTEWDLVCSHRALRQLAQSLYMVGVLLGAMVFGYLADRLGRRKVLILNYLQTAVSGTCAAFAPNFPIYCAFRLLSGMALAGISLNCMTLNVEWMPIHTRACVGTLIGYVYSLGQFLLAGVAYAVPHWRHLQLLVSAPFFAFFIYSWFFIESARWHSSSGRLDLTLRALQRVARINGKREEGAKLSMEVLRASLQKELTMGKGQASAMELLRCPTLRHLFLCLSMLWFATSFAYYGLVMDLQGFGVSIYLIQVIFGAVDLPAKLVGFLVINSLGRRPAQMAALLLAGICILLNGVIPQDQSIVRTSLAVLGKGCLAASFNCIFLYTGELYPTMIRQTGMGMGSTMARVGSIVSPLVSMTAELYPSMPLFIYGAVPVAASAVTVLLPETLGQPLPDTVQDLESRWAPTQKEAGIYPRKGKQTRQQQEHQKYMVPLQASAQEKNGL

Structure (SMILES): Cc1cc(-n2ncc(CN3C[C@@H](c4ccc5c(c4C)COC5=O)N[C@@H](C)C3)n2)ncc1C#N
- IC50 [1]: > 18 µM
- IC50 [2]: > 18 µM
- IC50 [3]: > 18 µM
- solubility [4]: 14000 µg/mL (≈ 31.6 mM)
- solubility [5]: 30 µg/mL (≈ 0.0676 mM)
- Vd [6]: 2.6 L/kg
- half-life [7]: 2.8 h
- MRT [8]: 4 h
- Cmax [9]: 2800 nM
- Tmax [10]: 0.25 h
- AUC(0-t) [11]: 14 µM·h
- bioavailability [12]: 83%
- Vd [13]: 2.8 L/kg
- half-life [14]: 4.8 h
- MRT [15]: 5.8 h
- Cmax [16]: 3800 nM
- Tmax [17]: 0.8 h
- AUC(0-t) at 24 h [18]: 18 µM·h
- bioavailability [19]: 76%
- Vd [20]: 1.7 L/kg
- half-life [21]: 3.3 h
- MRT [22]: 1.7 h
- Cmax [23]: 1900 nM
- Tmax [24]: 0.8 h
- AUC(0-t) [25]: 5.7 µM·h
- bioavailability [26]: 48%
- Vd [27]: 5.1 L/kg
- half-life [28]: 4.2 h
- MRT [29]: 3.6 h
- Cmax [30]: 1000 nM
- Tmax [31]: 2 h
- AUC(0-t) [32]: 5.5 µM·h
- bioavailability [33]: 69%
